Details: Liquid, Vibrating tube method

CCCCCCC(=O)OCC(COC(=O)CCCCCC)(COC(=O)CCCCCC)COC(=O)CCCCCC [pentaerythritol tetraheptanoate]
Details | mass density [kg/m3]
323.15 K, 32352 kPa | 976
323.15 K, 32396 kPa | 976
323.15 K, 32734 kPa | 976.2
323.15 K, 32779 kPa | 976.2
323.15 K, 32824 kPa | 976.2
323.15 K, 32870 kPa | 976.3
323.15 K, 32924 kPa | 976.3
323.15 K, 32970 kPa | 976.3
323.15 K, 33016 kPa | 976.4
323.15 K, 33072 kPa | 976.4
323.15 K, 33118 kPa | 976.4
323.15 K, 33164 kPa | 976.4
323.15 K, 33219 kPa | 976.5
323.15 K, 33314 kPa | 976.4
323.15 K, 33463 kPa | 976.7
323.15 K, 33519 kPa | 976.7
323.15 K, 33566 kPa | 976.7
323.15 K, 33612 kPa | 976.6
323.15 K, 33657 kPa | 976.7
323.15 K, 33718 kPa | 976.7
323.15 K, 33778 kPa | 976.7
323.15 K, 33830 kPa | 976.8
323.15 K, 33882 kPa | 976.7
323.15 K, 33940 kPa | 976.9
323.15 K, 33970 kPa | 976.8
323.15 K, 34065 kPa | 976.9
323.15 K, 34098 kPa | 977
323.15 K, 34123 kPa | 977
323.15 K, 34149 kPa | 977.1
323.15 K, 34181 kPa | 977
323.15 K, 34207 kPa | 977.1
323.15 K, 34235 kPa | 977.1
323.15 K, 34262 kPa | 977.1
323.15 K, 34295 kPa | 977
323.15 K, 34323 kPa | 977.2
323.15 K, 34351 kPa | 977.1
323.15 K, 34379 kPa | 977.2
323.15 K, 34415 kPa | 977.1
323.15 K, 34444 kPa | 977.2
323.15 K, 34481 kPa | 977.2
323.15 K, 34513 kPa | 977.3
323.15 K, 34545 kPa | 977.2
323.15 K, 34570 kPa | 977.3
323.15 K, 34571 kPa | 977.2
323.15 K, 34574 kPa | 977.2
323.15 K, 34576 kPa | 977.3
323.15 K, 34578 kPa | 977.2
323.15 K, 34581 kPa | 977.3
323.15 K, 34584 kPa | 977.2
323.15 K, 34586 kPa | 977.3
323.15 K, 34589 kPa | 977.3
323.15 K, 34593 kPa | 977.2
323.15 K, 34596 kPa | 977.3
323.15 K, 34600 kPa | 977.3
323.15 K, 34605 kPa | 977.3
323.15 K, 34611 kPa | 977.3
323.15 K, 34616 kPa | 977.2
343.13 K, 13322 kPa | 950.4
343.13 K, 13336 kPa | 950.3
343.13 K, 13347 kPa | 950.4
343.13 K, 13362 kPa | 950.3
343.13 K, 13471 kPa | 950.5
343.13 K, 13485 kPa | 950.5
343.14 K, 13145 kPa | 950
343.14 K, 13156 kPa | 950.2
343.14 K, 13167 kPa | 950.1
343.14 K, 13180 kPa | 950.2
343.14 K, 13192 kPa | 950.3
343.14 K, 13203 kPa | 950.3
343.14 K, 13216 kPa | 950.2
343.14 K, 13227 kPa | 950.2
343.14 K, 13238 kPa | 950.2
343.14 K, 13252 kPa | 950.1
343.14 K, 13263 kPa | 950.3
343.14 K, 13274 kPa | 950.4
343.14 K, 13286 kPa | 950.4
343.14 K, 13300 kPa | 950.3
343.14 K, 13311 kPa | 950.2
343.14 K, 13373 kPa | 950.2
343.14 K, 13384 kPa | 950.4
343.14 K, 13399 kPa | 950.4
343.14 K, 13410 kPa | 950.5
343.14 K, 13420 kPa | 950.4
343.14 K, 13431 kPa | 950.5
343.14 K, 13448 kPa | 950.3
343.14 K, 13460 kPa | 950.4
343.14 K, 13497 kPa | 950.4
343.14 K, 13509 kPa | 950.4
343.14 K, 13521 kPa | 950.4
343.14 K, 13535 kPa | 950.5
343.14 K, 13547 kPa | 950.5
343.14 K, 13560 kPa | 950.6
343.14 K, 13574 kPa | 950.5
343.14 K, 13586 kPa | 950.6
343.14 K, 13598 kPa | 950.5
343.14 K, 13610 kPa | 950.6
343.14 K, 13622 kPa | 950.6
343.14 K, 13636 kPa | 950.6
343.14 K, 13648 kPa | 950.7
343.14 K, 13870 kPa | 950.7
343.14 K, 13883 kPa | 950.7
343.14 K, 13898 kPa | 950.7
343.14 K, 13911 kPa | 950.8
343.14 K, 13926 kPa | 950.7
343.14 K, 13938 kPa | 950.8
343.14 K, 13951 kPa | 950.8
343.14 K, 13964 kPa | 950.8
343.14 K, 13977 kPa | 950.7
343.14 K, 13992 kPa | 950.8
343.14 K, 14004 kPa | 950.8
343.14 K, 14018 kPa | 950.8
343.14 K, 14033 kPa | 950.8
343.14 K, 14046 kPa | 950.8
343.14 K, 14058 kPa | 950.9
343.14 K, 14074 kPa | 950.7
343.14 K, 14087 kPa | 950.9
343.14 K, 14100 kPa | 950.9
343.14 K, 14113 kPa | 950.8
343.14 K, 14129 kPa | 950.8
343.14 K, 14142 kPa | 950.8
343.14 K, 14157 kPa | 951
343.14 K, 14170 kPa | 951
343.14 K, 14183 kPa | 951
343.14 K, 14199 kPa | 951
343.14 K, 14212 kPa | 950.9
343.14 K, 14225 kPa | 950.9
343.14 K, 14239 kPa | 951
343.14 K, 14255 kPa | 951
343.14 K, 14268 kPa | 950.9
343.14 K, 14281 kPa | 951.1
343.14 K, 14298 kPa | 951
343.14 K, 14311 kPa | 951.1
343.14 K, 14324 kPa | 951
343.14 K, 14340 kPa | 950.9
343.14 K, 14354 kPa | 951.1
343.14 K, 14367 kPa | 951.1
343.14 K, 14383 kPa | 951
343.14 K, 16135 kPa | 952.3
343.14 K, 16152 kPa | 952.4
343.14 K, 16173 kPa | 952.3
343.14 K, 16190 kPa | 952.3
343.14 K, 16208 kPa | 952.3
343.14 K, 16228 kPa | 952.4
343.14 K, 16245 kPa | 952.4
343.14 K, 16263 kPa | 952.3
343.14 K, 16283 kPa | 952.4
343.14 K, 16301 kPa | 952.4
343.14 K, 16319 kPa | 952.4
343.14 K, 16339 kPa | 952.5
343.14 K, 16357 kPa | 952.5
343.14 K, 16376 kPa | 952.4
343.14 K, 16394 kPa | 952.5
343.14 K, 16415 kPa | 952.5
343.14 K, 16433 kPa | 952.5
343.14 K, 16451 kPa | 952.7
343.14 K, 16472 kPa | 952.5
343.14 K, 16490 kPa | 952.5
343.14 K, 16508 kPa | 952.6
343.14 K, 16526 kPa | 952.6
343.14 K, 16548 kPa | 952.6
343.14 K, 16566 kPa | 952.5
343.14 K, 16585 kPa | 952.6
343.14 K, 16607 kPa | 952.7
343.14 K, 16626 kPa | 952.7
343.14 K, 16645 kPa | 952.7
343.14 K, 16664 kPa | 952.6
343.14 K, 16682 kPa | 952.6
343.14 K, 16704 kPa | 952.7
343.14 K, 16722 kPa | 952.8
343.14 K, 16744 kPa | 952.8
343.14 K, 16763 kPa | 952.7
343.14 K, 16781 kPa | 952.7
343.14 K, 16800 kPa | 952.7
343.14 K, 16822 kPa | 952.8
343.14 K, 16841 kPa | 952.8
343.14 K, 16863 kPa | 952.8
343.14 K, 16901 kPa | 952.8
343.14 K, 16924 kPa | 952.8
343.14 K, 16943 kPa | 952.9
343.14 K, 16962 kPa | 953
343.14 K, 16981 kPa | 952.9
343.14 K, 17004 kPa | 952.9
343.14 K, 17022 kPa | 953
343.14 K, 17042 kPa | 953
343.14 K, 17065 kPa | 953
343.14 K, 17084 kPa | 953.1
343.14 K, 17107 kPa | 952.9
343.14 K, 17126 kPa | 952.9
343.14 K, 17146 kPa | 953
343.14 K, 17165 kPa | 953
343.14 K, 17188 kPa | 953.1
343.14 K, 17208 kPa | 953
343.14 K, 17227 kPa | 953.1
343.14 K, 17251 kPa | 953.1
343.14 K, 17270 kPa | 953.2
343.14 K, 17294 kPa | 953.2
343.14 K, 17314 kPa | 953.2
343.14 K, 17334 kPa | 953.1
343.14 K, 17358 kPa | 953.1
343.14 K, 17378 kPa | 953.1
343.14 K, 17398 kPa | 953.2
343.14 K, 17419 kPa | 953
343.14 K, 17443 kPa | 953.1
343.14 K, 17593 kPa | 953.4
343.14 K, 17613 kPa | 953.2
343.14 K, 17638 kPa | 953.3
343.14 K, 17659 kPa | 953.4
343.14 K, 17680 kPa | 953.3
343.14 K, 17701 kPa | 953.4
343.14 K, 17722 kPa | 953.4
343.14 K, 17747 kPa | 953.4
343.14 K, 17768 kPa | 953.5
343.14 K, 17789 kPa | 953.5
343.14 K, 17815 kPa | 953.5
343.14 K, 17835 kPa | 953.5
343.14 K, 17860 kPa | 953.4
343.14 K, 17902 kPa | 953.5
343.14 K, 17928 kPa | 953.4
343.14 K, 18040 kPa | 953.6
343.14 K, 18066 kPa | 953.6
343.14 K, 18088 kPa | 953.5
343.14 K, 18109 kPa | 953.6
343.14 K, 18130 kPa | 953.7

Source: the NIST ThermoML archive (doi:10.1021/je060271a)
